Reference: patent publication US5908787A, “Total protein detection method” (Bayer Corporation, priority 1997, dated 1999)

Tested on: protein
Experiment: Ka, affinity of secondary dye for protein
Assay type: binding
Conditions: not given
Text: The phenolsulfonephthalein protein error indicators are used in conjunction with the molybdate or tungstate salt assay for protein in which a fluid test sample is combined with a molybdate or tungstate salt and a dye which forms a complex therewith whose absorption band is shifted in the presence of protein. As is disclosed in U.S. Pat. No. 5,399,498; tungstate reacts with the indicator to form a complex whose color shifts in the presence of protein in a manner similar to that of molybdenum. This patent also discloses the use of phytic acid or derivatives thereof to reduce background interference in this sort of assay. […] This method is a total protein assay since the response is not dependent on the type of protein present in the test sample. […] Since total protein assays are useful in the detection of certain disease states, and the higher the total protein spillover into urine the more serious the potential problem, a total protein assay which provides a detectable response at high protein concentrations is desirable.

Structure (SMILES)	affinity for protein (in words)
O=[N+]([O-])c1cc(C2(c3cc(I)c(O)c([N+](=O)[O-])c3)OS(=O)(=O)c3c(Br)c(Br)c(Br)c(Br)c32)cc(I)c1O [Secondary dye 5, 5',5"-Dinitro-3',3"-Diiodo-3,4,5,6-Tetrabromophenolsulfonephthalein]	too high an affinity for proteins

Tested on: not listed separately
Experiment: pKa of secondary dye
Assay type: physicochemical
Conditions: second pKa of the dye
Text: Structure A represents the general structure of phenolsulfonephthalein derivatives in protic solvents such as water or an alcohol while structure B represents the form that predominates in the dry state or in aprotic solvents such as ethers and acetonitrile. The phenolsulfonephthalein error indicators are pH indicators which include an ionizable proton having a pKa value such that the proton is displaced by the presence of protein. The pKa value of a phenolsulfonephthalein indicator is the pH at which one half of the number of indicator molecules include the deprotonated C ring phenolic hydroxyl group. In the case of the phenolsulfonephthalein protein error indicators illustrated above, two deprotonation events occur in order to cause an observable color change. The first deprotonation removes the proton from the aryl sulfonic acid on the A ring to yield the ion illustrated below as formula C: [drawing 2]
The pKa of this proton is less than one, resulting in the ionization of this moiety at all useful pH values. This ionizable group is also responsible for the aqueous solubility of these compounds. The second deprotonation involves the release of a proton from the C ring phenolic hydroxyl to yield the dianion. With this type of protein error indicator, the second deprotonization causes the observable color change which is indicative of the presence of protein in the sample being tested. The phenolsulfonephthalein protein error indicator is typically applied to an absorbent matrix material along with a buffer to provide an environment of constant pH, so that one can rely on the color change being the result of the presence of protein rather than the result of a pH change upon contact with the test fluid.

Structure (SMILES)	pKa
O=S1(=O)OC(c2cc(Br)c(O)c(Br)c2)(c2cc(Br)c(O)c(Br)c2)c2ccccc21 [Secondary dye 1, Bromophenol blue]	3.7
O=S1(=O)OC(c2cc(Cl)c(O)c(Br)c2)(c2cc(Cl)c(O)c(Br)c2)c2ccccc21 [Secondary dye 3, Bromochlorophenol blue]	3.8
O=[N+]([O-])c1cc(C2(c3cc(I)c(O)c([N+](=O)[O-])c3)OS(=O)(=O)c3c(Br)c(Br)c(Br)c(Br)c32)cc(I)c1O [Secondary dye 5, 5',5"-Dinitro-3',3"-Diiodo-3,4,5,6-Tetrabromophenolsulfonephthalein]	1.5
O=[N+]([O-])c1cc(C2(c3cc(Br)c(O)c(I)c3)OS(=O)(=O)c3c(Br)c(Br)c(Br)c(Br)c32)cc(Br)c1O (centres unmarked) [Secondary dye 7, 5'-Nitro-5''-Iodo-3',3"3,4,5,6-hexabromophenolsulfonephthalein]	1.6
O=S1(=O)OC(c2cc(I)c(O)c(I)c2)(c2cc(I)c(O)c(I)c2)c2ccccc21 [Secondary dye 4, Tetraiodophenolsulfonephthalein]	4.0
O=[N+]([O-])c1cc(C2(c3cc(Br)c(O)c([N+](=O)[O-])c3)OS(=O)(=O)c3c(Br)c(Br)c(Br)c(Br)c32)cc(Br)c1O [Secondary dye 6, 5',5"-Dinitro-3',3",3,4,5,6-hexabromophenolsulfonephthalein]	1.6
O=S1(=O)OC(c2cc(Br)c(O)c(Br)c2)(c2cc(Br)c(O)c(Br)c2)c2c(Br)c(Br)c(Br)c(Br)c21 [Secondary dye 2, Tetrabromophenol blue]	3.5
